Assay results: ChEMBL document CHEMBL4004878, “Design, synthesis and structure-bactericidal activity relationships of novel 9-oxime ketolides and reductive epimers of acylides” (2017)
≈ marks a conversion by molar mass, not a printed value.

What was measured:
Type in all cases: functional
Streptococcus pyogenes [1] = assay: Bacteriostatic activity against Streptococcus pyogenes 12-207 expressing mef after 20 to 24 hrs by two-fold microbroth dilution method
Streptococcus pneumoniae [2] = assay: Bacteriostatic activity against […] Streptococcus pneumoniae ATCC 49619 after 20 to 24 hrs by two-fold microbroth dilution method
Staphylococcus aureus [3] = assay: Bactericidal activity against methicillin-resistant Staphylococcus aureus PU32 expressing inducible ermA incubated for 20 hrs followed by sub-culturing for 24 hrs in absence of compound
Streptococcus pneumoniae [4] = assay: Ratio of MBC to MIC for […] Streptococcus pneumoniae ATCC 49619
Streptococcus pyogenes [5] = assay: Bactericidal activity against Streptococcus pyogenes 12-207 expressing mef incubated for 20 to 24 hrs followed by sub-culturing for 24 hrs in absence of compound
Staphylococcus aureus [6] = assay: Bacteriostatic activity against methicillin-resistant Staphylococcus aureus PU20 expressing constitutive ermC after 20 hrs by two-fold microbroth dilution method; details: PU20, 20 h
Staphylococcus aureus [7] = assay: Bacteriostatic activity against methicillin-resistant Staphylococcus aureus PU32 expressing inducible ermA after 20 hrs by two-fold microbroth dilution method; details: PU32, 20 h
Streptococcus pyogenes [8] = assay: Ratio of MBC to MIC for Streptococcus pyogenes 12-207 expressing mef
Streptococcus pneumoniae [9] = assay: Bacteriostatic activity against penicillin-susceptible Streptococcus pneumoniae PU09 after 20 to 24 hrs by two-fold microbroth dilution method
Streptococcus pyogenes [10] = assay: Bactericidal activity against Streptococcus pyogenes 01-968 expressing inducible ermA incubated for 20 to 24 hrs followed by sub-culturing for 24 hrs in absence of compound
Staphylococcus aureus [11] = assay: Ratio of MBC to MIC for methicillin-resistant Staphylococcus aureus PU20 expressing constitutive ermC
Haemophilus influenzae [12] = assay: Bactericidal activity against azithromycin susceptible/ampicillin-resistant Haemophilus influenzae 11P307 incubated for 20 to 24 hrs followed by sub-culturing for 24 hrs in absence of compound
Streptococcus pyogenes [13] = assay: Bacteriostatic activity against Streptococcus pyogenes 01-968 expressing inducible ermA after 20 to 24 hrs by two-fold microbroth dilution method
Moraxella catarrhalis [14] = assay: Ratio of MBC to MIC against erythromycin-susceptible Moraxella catarrhalis 11B366
Streptococcus pyogenes [15] = assay: Ratio of MBC to MIC for Streptococcus pyogenes 01-968 expressing inducible ermA
Haemophilus influenzae [16] = assay: Bacteriostatic activity against azithromycin-susceptible/ampicillin-resistant Haemophilus influenzae 11P307 after 20 to 24 hrs by two-fold microbroth dilution method
Haemophilus influenzae [17] = assay: Ratio of MBC to MIC for azithromycin susceptible/ampicillin-resistant Haemophilus influenzae 11P307
Staphylococcus aureus [18] = assay: Bactericidal activity against methicillin-resistant Staphylococcus aureus PU20 expressing constitutive ermC incubated for 20 hrs followed by sub-culturing for 24 hrs in absence of compound
Streptococcus pneumoniae [19] = assay: Bactericidal activity against penicillin-susceptible Streptococcus pneumoniae PU09 incubated for 20 to 24 hrs followed by sub-culturing for 24 hrs in absence of compound
Streptococcus pneumoniae [20] = assay: Ratio of MBC to MIC for penicillin-susceptible Streptococcus pneumoniae PU09
Moraxella catarrhalis [21] = assay: Bactericidal activity against erythromycin-susceptible Moraxella catarrhalis 11B366 incubated for 20 hrs followed by sub-culturing for 24 hrs in absence of compound
Streptococcus pneumoniae [22] = assay: Bactericidal activity against […] Streptococcus pneumoniae ATCC 49619 incubated for 20 to 24 hrs followed by sub-culturing for 24 hrs in absence of compound
Staphylococcus aureus [23] = assay: Ratio of MBC to MIC against methicillin-resistant Staphylococcus aureus PU32 expressing inducible ermA
Moraxella catarrhalis [24] = assay: Bacteriostatic activity against erythromycin-susceptible Moraxella catarrhalis 11B366 after 20 hrs by two-fold microbroth dilution method; details: 11B366, 20 h
Moraxella catarrhalis [25] = assay: Bactericidal activity against erythromycin-susceptible Moraxella catarrhalis 13L332 incubated for 20 hrs followed by sub-culturing for 24 hrs in absence of compound
Moraxella catarrhalis [26] = assay: Ratio of MBC to MIC against erythromycin-susceptible Moraxella catarrhalis 13L332
Moraxella catarrhalis [27] = assay: Bacteriostatic activity against erythromycin-susceptible Moraxella catarrhalis 13L332 after 20 hrs by two-fold microbroth dilution method; details: 13L332, 20 h

| SMILES | MIC (Streptococcus pyogenes [1]) [µg/mL] | MIC (Streptococcus pneumoniae [2]) [µg/mL] | MBC (Staphylococcus aureus [3]) [µg/mL] | Ratio (Streptococcus pneumoniae [4]) | MBC (Streptococcus pyogenes [5]) [µg/mL] | MIC (Staphylococcus aureus [6]) [µg/mL] | MIC (Staphylococcus aureus [7]) [µg/mL] | Ratio (Streptococcus pyogenes [8]) | MIC (Streptococcus pneumoniae [9]) [µg/mL] | MBC (Streptococcus pyogenes [10]) [µg/mL] | Ratio (Staphylococcus aureus [11]) | MBC (Haemophilus influenzae [12]) [µg/mL] | MIC (Streptococcus pyogenes [13]) [µg/mL] | Ratio (Moraxella catarrhalis [14]) | Ratio (Streptococcus pyogenes [15]) | MBC (Staphylococcus aureus [18]) [µg/mL] | MBC (Streptococcus pneumoniae [19]) [µg/mL] | Ratio (Streptococcus pneumoniae [20]) | MBC (Streptococcus pneumoniae [22]) [µg/mL] | Ratio (Staphylococcus aureus [23]) | also measured |
| --- | --- | --- | --- | --- | --- | --- | --- | --- | --- | --- | --- | --- | --- | --- | --- | --- | --- | --- | --- | --- | --- |
| CC[C@H]1OC(=O)[C@@](C)(F)C(=O)[C@H](C)[C@@H](O[C@@H]2O[C@H](C)C[C@H](N(C)C)[C@H]2O)[C@](C)(OC)C[C@@H](C)/C(=N\OCC#Cc2cncc3ccccc23)[C@H](C)[C@H]2OC(=O)O[C@@]21C | 0.031 (≈ 0.0382 µM) | ≤ 0.008 | > 8 | >=4 | > 0.25 | 32 (≈ 39.4 µM) | 1 (≈ 1.23 µM) | >8 | 0.25 (≈ 0.308 µM) | > 0.5 | 4 | > 64 | 0.062 (≈ 0.0764 µM) | 2 | >8 | 128 (≈ 158 µM) | 1 (≈ 1.23 µM) | 4 | 0.031 (≈ 0.0382 µM) | >8 | MIC (Haemophilus influenzae [16]): 8 µg/mL (≈ 9.85 µM); Ratio (Haemophilus influenzae [17]): >8; MBC (Moraxella catarrhalis [21]): 2 µg/mL (≈ 2.46 µM); MIC (Moraxella catarrhalis [24]): 1 µg/mL (≈ 1.23 µM) |
| CC[C@H]1OC(=O)[C@H](C)C(=O)[C@H](C)[C@@H](O[C@@H]2O[C@H](C)C[C@H](N(C)C)[C@H]2O)[C@](C)(OC)C[C@@H](C)/C(=N\OCC#Cc2cncc3ccccc23)[C@H](C)[C@H]2OC(=O)O[C@@]21C | 0.016 (≈ 0.0202 µM) | ≤ 0.008 | > 8 | >=4 | > 0.125 | 32 (≈ 40.3 µM) | 1 (≈ 1.26 µM) | >8 | 0.25 (≈ 0.315 µM) | > 2 | 2 | > 128 | 0.25 (≈ 0.315 µM) | 1 | >8 | 64 (≈ 80.6 µM) | 0.5 (≈ 0.63 µM) | 2 | 0.031 (≈ 0.039 µM) | >8 | MIC (Haemophilus influenzae [16]): 16 µg/mL (≈ 20.2 µM); Ratio (Haemophilus influenzae [17]): >8; MBC (Moraxella catarrhalis [21]): 4 µg/mL (≈ 5.04 µM); MIC (Moraxella catarrhalis [24]): 4 µg/mL (≈ 5.04 µM) |
| CC[C@H]1OC(=O)[C@H](C)[C@@H](OC(=O)Cc2ccccn2)[C@H](C)[C@@H](O[C@@H]2O[C@H](C)C[C@H](N(C)C)[C@H]2O)[C@](C)(OC)C[C@@H](C)/C(=N\OC/C=C/c2cccnc2)[C@H](C)[C@H]2OC(=O)O[C@@]21C |  | 16 (≈ 18.5 µM) | > 256 | >4 |  | > 256 | 256 (≈ 295 µM) |  | 8 (≈ 9.23 µM) | > 64 |  |  | 64 (≈ 73.8 µM) |  |  | > 256 | > 64 | >8 | > 64 |  | MBC (Moraxella catarrhalis [25]): 64 µg/mL (≈ 73.8 µM); Ratio (Moraxella catarrhalis [26]): 2; MIC (Moraxella catarrhalis [27]): 32 µg/mL (≈ 36.9 µM) |
| CC[C@H]1OC(=O)[C@@](C)(F)[C@H](OC(=O)Cc2ccccn2)[C@H](C)[C@@H](O[C@@H]2O[C@H](C)C[C@H](N(C)C)[C@H]2O)[C@](C)(OC)C[C@@H](C)/C(=N\OC)[C@H](C)[C@H]2OC(=O)O[C@@]21C |  | 64 (≈ 81.9 µM) | > 256 | 1 |  | > 256 | > 256 |  | 32 (≈ 40.9 µM) | > 64 |  |  | 64 (≈ 81.9 µM) |  |  | > 256 | > 64 |  | 64 (≈ 81.9 µM) |  | MBC (Moraxella catarrhalis [25]): 64 µg/mL (≈ 81.9 µM); Ratio (Moraxella catarrhalis [26]): 2; MIC (Moraxella catarrhalis [27]): 32 µg/mL (≈ 40.9 µM) |
| CC[C@H]1OC(=O)[C@@](C)(F)C(=O)[C@H](C)[C@@H](O[C@@H]2O[C@H](C)C[C@H](N(C)C)[C@H]2O)[C@](C)(OC)C[C@@H](C)/C(=N\OC/C=C/c2ccc3ncccc3c2)[C@H](C)[C@H]2OC(=O)O[C@@]21C | 0.062 (≈ 0.0762 µM) | ≤ 0.008 | > 8 | >=2 | > 0.5 | 32 (≈ 39.3 µM) | 1 (≈ 1.23 µM) | >8 | 0.5 (≈ 0.614 µM) | 1 (≈ 1.23 µM) | 2 | > 64 | 0.25 (≈ 0.307 µM) | 1 | 4 | 64 (≈ 78.6 µM) | 1 (≈ 1.23 µM) | 2 | 0.016 (≈ 0.0197 µM) | >8 | MIC (Haemophilus influenzae [16]): 8 µg/mL (≈ 9.83 µM); Ratio (Haemophilus influenzae [17]): >8; MBC (Moraxella catarrhalis [21]): 2 µg/mL (≈ 2.46 µM); MIC (Moraxella catarrhalis [24]): 2 µg/mL (≈ 2.46 µM) |
| CC[C@H]1OC(=O)[C@@](C)(F)C(=O)[C@H](C)[C@@H](O[C@@H]2O[C@H](C)C[C@H](N(C)C)[C@H]2O)[C@](C)(OC)C[C@@H](C)/C(=N\OC/C=C/c2cnc3ccccc3c2)[C@H](C)[C@H]2OC(=O)O[C@@]21C | 0.062 (≈ 0.0762 µM) | ≤ 0.008 | > 16 | >=8 | > 0.5 | 64 (≈ 78.6 µM) | 2 (≈ 2.46 µM) | >8 | 0.5 (≈ 0.614 µM) | 2 (≈ 2.46 µM) | 4 | > 64 | 0.25 (≈ 0.307 µM) | 1 | 8 | 256 (≈ 315 µM) | 1 (≈ 1.23 µM) | 2 | 0.062 (≈ 0.0762 µM) | >8 | MIC (Haemophilus influenzae [16]): 8 µg/mL (≈ 9.83 µM); Ratio (Haemophilus influenzae [17]): >8; MBC (Moraxella catarrhalis [21]): 2 µg/mL (≈ 2.46 µM); MIC (Moraxella catarrhalis [24]): 2 µg/mL (≈ 2.46 µM) |
| CC[C@H]1OC(=O)[C@H](C)[C@@H](OC(=O)Cc2ccccn2)[C@H](C)[C@@H](O[C@@H]2O[C@H](C)C[C@H](N(C)C)[C@H]2O)[C@](C)(OC)C[C@@H](C)/C(=N\OC)[C@H](C)[C@H]2OC(=O)O[C@@]21C |  | 0.125 (≈ 0.164 µM) | > 32 |  |  | > 256 | 4 (≈ 5.24 µM) |  | 0.5 (≈ 0.655 µM) | 2 (≈ 2.62 µM) |  |  | 0.25 (≈ 0.327 µM) |  | 8 | > 256 | 1 (≈ 1.31 µM) | 2 | 0.25 (≈ 0.327 µM) | >8 | MBC (Moraxella catarrhalis [25]): > 2 µg/mL; Ratio (Moraxella catarrhalis [26]): >8; MIC (Moraxella catarrhalis [27]): 0.25 µg/mL (≈ 0.327 µM) |
| CC[C@H]1OC(=O)[C@H](C)[C@H](OC(=O)Cc2ccccn2)[C@H](C)[C@@H](O[C@@H]2O[C@H](C)C[C@H](N(C)C)[C@H]2O)[C@@](C)(OC/C=C/c2cnc3ccccc3c2)C[C@@H](C)/C(=N\O)[C@H](C)[C@H]2OC(=O)O[C@@]21C |  | 4 (≈ 4.43 µM) | > 256 | 4 |  | 256 (≈ 283 µM) | 64 (≈ 70.9 µM) |  | 8 (≈ 8.86 µM) | 64 (≈ 70.9 µM) |  |  | 8 (≈ 8.86 µM) |  | 8 | > 256 | 16 (≈ 17.7 µM) | 2 | 16 (≈ 17.7 µM) | >4 | MBC (Moraxella catarrhalis [25]): > 4 µg/mL; Ratio (Moraxella catarrhalis [26]): >8; MIC (Moraxella catarrhalis [27]): 0.5 µg/mL (≈ 0.554 µM) |
